Values joined by “and” are separate entries in the source; they are usually repeats but may differ in a detail not shown here. Equal entries are not always repeated.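 Step 1: Grow cells in 96-well plates. Step 2: Expose to compound for 48 hours at 5 concentrations. Step 3: Interpolate endpoints linearly; if unreached, use highest concentration. GI50: concentration for 50% inhibition of growth. At the TGI there is no net growth.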
Key:
Test in all cases: NCI tumour cell line growth inhibition, 48 h
[1] = test system: ACHN renal
[2] = test system: BT-549 breast
[3] = test system: HOP-92 NSCLC
[4] = test system: HS 578T breast
[5] = test system: HT29 colon
[6] = test system: SK-MEL-28 melanoma
[7] = test system: SK-MEL-5 melanoma
[8] = test system: SN12C renal
[9] = test system: SNB-19 CNS
[10] = test system: SW-620 colon

Compound | GI50 [1] | TGI [1] | GI50 [2] | TGI [2] | GI50 [3] | TGI [3] | GI50 [4] | TGI [4] | GI50 [5] | TGI [5] | GI50 [6] | TGI [6] | GI50 [7] | TGI [7] | GI50 [8] | TGI [8] | GI50 [9] | TGI [9] | GI50 [10] | TGI [10]
Cn1c(/C=C(\C#N)c2ccccc2)nc2c(N3CCOCC3)nc(Cl)nc21 | 0.458 µM | 1.59 µM | 0.711 µM | 2.07 µM | 0.405 µM | 2.06 µM | 1.69 µM | 5.64 µM | 0.386 µM | 1.47 µM | 1.57 µM | 2.96 µM | 1.64 µM | 3.01 µM | 1.12 µM | 2.48 µM | 1.6 µM | 3.09 µM | 0.413 µM | 1.51 µM
CCC/C(=N/N=C(N)N)c1ccc(NC(=O)c2cc3cc(OC)ccc3[nH]2)cc1 | 13.1 µM | 33.1 µM | 13.5 µM | 53.5 µM | 1.89 µM | 12.1 µM | 14 µM | 48.4 µM | 4.49 µM | 20 µM | 10.5 µM | 40.2 µM | 10.1 µM | 27 µM | 14.1 µM | 33.7 µM | 13.6 µM | 35.8 µM | 3.6 µM | 20.1 µM
C=C(CN1C(=O)[C@H]2CCCN2C(=O)c2ccccc21)c1ccc(C(=O)O)cc1 | > 100 µM | > 100 µM | > 100 µM | > 100 µM | > 100 µM | > 100 µM | > 100 µM | > 100 µM | > 100 µM | > 100 µM | > 100 µM | > 100 µM | > 100 µM | > 100 µM | > 100 µM | > 100 µM | > 100 µM | > 100 µM | > 100 µM | > 100 µM
O=C1CCCCCCCC/C=C\CC(c2ccco2)O1 (centres undefined) | 23.9 µM | 82.4 µM | 28.6 µM | > 100 µM | 17 µM | 94.9 µM | 32.4 µM | > 100 µM | 27 µM | 99.5 µM | 31.1 µM | > 100 µM | 18.9 µM | 36.9 µM | 22.2 µM | 69.9 µM | 13.1 µM | 40.3 µM | 41.5 µM | > 100 µM
O=C1C(=O)c2ccccc2C(O)=C1CC=C(Br)Br | 4.71 µM | 92.3 µM | 11.3 µM | 71.9 µM | 12.5 µM | 76.4 µM | 10.6 µM | 56 µM | 3.25 µM | 53.5 µM | 12.8 µM | > 100 µM | 1.28 µM | 16.6 µM | 5.7 µM | 77.9 µM | 4.67 µM | 77.8 µM | 3.07 µM | > 100 µM
N#Cc1nc2c(S(=O)(=O)c3ccccc3)c(N)n(Cc3cccnc3)c2nc1C#N | 80.7 µM | > 100 µM | 4.6 µM | 37.3 µM | 4.71 µM | 28.5 µM | 1.81 µM | 5.52 µM | > 100 µM | > 100 µM | 27.8 µM | > 100 µM | > 100 µM | > 100 µM | 26.6 µM | > 100 µM | 21.9 µM | 72.4 µM | > 100 µM | > 100 µM
CCn1c(CN2CCN(Cc3ccccc3)CC2)nc2cc(NC(=O)c3cccs3)ccc21 | 18.7 µM | 75.4 µM | 13.4 µM | 28.9 µM | 12.3 µM | 40.3 µM | 16.9 µM | 48.8 µM | 16.8 µM | 47.3 µM | 16 µM | 34.3 µM | 11.5 µM | 24.1 µM | 23.5 µM | > 100 µM | 27.7 µM | > 100 µM | 17.5 µM | 43.4 µM
O=C(CN1CCN(CCCOc2c(-c3ccccc3)oc3ccccc3c2=O)CC1)Nc1ccc(Cl)cc1C(=O)c1ccccc1Cl | 14.8 µM | > 100 µM | 14.1 µM | 40.5 µM | 1.05 µM | 6.6 µM | 8.45 µM | 60.8 µM | 3.09 µM | > 100 µM | 3.66 µM | 15.2 µM | 5.93 µM | 25.2 µM | 4.98 µM | 18 µM | 8.09 µM | > 100 µM | 0.336 µM | > 100 µM
COc1ncc(-c2ccc3nccc(-c4ccnnc4)c3c2)cc1NS(=O)(=O)c1ccc(F)cc1F | 0.0104 µM and < 0.0114 µM | > 74.3 µM | 0.00392 µM and < 0.01 µM | 0.0688 µM and 0.0434 µM | 0.00109 µM and < 0.01 µM | 0.00872 µM and < 0.01 µM | 0.00212 µM and < 0.01 µM | 0.0433 µM and 0.023 µM | 0.00325 µM and < 0.01 µM | > 10 µM and 4.25 µM | 0.00213 µM and < 0.01 µM | 0.0395 µM and 0.36 µM | 0.0237 µM and 0.0154 µM | 0.141 µM and 0.0966 µM | 0.0111 µM and < 0.01 µM | > 100 µM | 0.0397 µM and 0.0127 µM | – | 0.0151 µM and 0.0225 µM | > 4.47 µM and 1.92 µM
CC(=O)[C@@]1(O)CC[C@H]2[C@@H]3C[C@H](C)C4=CC(=O)CC[C@]4(C)[C@H]3[C@@H](O)C[C@@]21C | – | > 100 µM | – | > 100 µM | – | > 100 µM | – | > 100 µM | – | > 100 µM | – | > 100 µM | – | > 100 µM | – | > 100 µM | – | > 100 µM | – | > 100 µM
CC(C)(C)c1nn(-c2ccccc2)c2c1C(=O)CSC(c1ccccc1Cl)N2 (centres undefined) | 4.87 µM | 19.3 µM | 2.91 µM | 12.9 µM | 0.82 µM | 14.4 µM | 1.26 µM | 7.22 µM | 1.97 µM | 6.55 µM | 5.18 µM | 22.5 µM | 0.966 µM | 11 µM | 3.26 µM | 14.7 µM | 2.54 µM | 15.2 µM | – | –
CCC(CO)Nc1nc(NCc2ccccc2O)c2ncn(C(C)C)c2n1 (centres undefined) | 1.96 µM | > 100 µM | 2.76 µM | > 100 µM | 4.97 µM | 26.2 µM | 3.1 µM | 16.7 µM | 3.67 µM | 60.1 µM | 2.35 µM | 12.8 µM | 2.54 µM | 11.9 µM | 2.77 µM | 37.5 µM | 3.3 µM | 76 µM | 3.34 µM | > 100 µM
COC(=O)c1c2c(c(C)[n+]([O-])c1C)C(=O)C=C(NCc1ccc(F)c(Cl)c1)C2=O | 0.126 µM | 1.81 µM | 1.01 µM | 2.43 µM | 1.69 µM | 3.84 µM | 1.62 µM | 6.48 µM | 0.243 µM | 2.15 µM | 0.411 µM | 2.15 µM | 0.164 µM | 0.311 µM | 0.31 µM | 1.28 µM | 0.801 µM | 2.07 µM | 0.112 µM | 1.32 µM
C=CC(=O)N1CCN(c2nc(=O)n(-c3c(C)ccnc3C(C)C)c3nc(-c4c(O)cccc4F)c(F)cc23)[C@@H](C)C1 | 40.9 µM | > 100 µM | 15.8 µM | > 51.3 µM | 29.8 µM | > 58.8 µM | 45.7 µM | > 100 µM | 35.9 µM | > 100 µM | > 58.7 µM | > 100 µM | 27.8 µM | > 59.1 µM | 38 µM | > 100 µM | 57.8 µM | > 100 µM | 36.8 µM | > 100 µM
O=C(Nc1cccc(Cl)c1)c1ccc(NC2=C(Cl)C(=O)N(Cc3ccccc3)C2=O)cc1 | 17.6 µM | > 53.4 µM | 8.33 µM | 31.5 µM | 9.09 µM | 29.5 µM | 18.6 µM | 48.5 µM | 8.43 µM | > 100 µM | 14.4 µM | 31.7 µM | 7.81 µM | 19.4 µM | 7.77 µM | 23 µM | 21.5 µM | > 59.2 µM | 7.4 µM | 19.7 µM
O=C1C(Cl)=C(Nc2cccc(Cl)c2)C(=O)N1Cc1ccccc1Cl | 4.36 µM | 17.1 µM | 4.31 µM | 26 µM | 8.28 µM | 32.4 µM | 9.4 µM | 56.4 µM | 5.45 µM | > 100 µM | 9.95 µM | 34.2 µM | 3.37 µM | 14.3 µM | 2.32 µM | 8 µM | – | – | 2.82 µM | 18.6 µM
COC(=O)C1=C(C(=O)ON)C2C=CC1(C(Cc1ccccc1)Nc1ccccc1)O2 (centres undefined) | 1.63 µM | 2.99 µM | 2.07 µM | 4.87 µM | 1.51 µM | 2.91 µM | 25.3 µM | > 100 µM | 1.79 µM | 3.42 µM | 1.92 µM | 3.66 µM | 14.1 µM | 27.2 µM | 1.99 µM | 4.45 µM | 14.8 µM | 27.9 µM | – | –
O=c1ccn(C2OC(CO/N=C/c3ccc(O)c(O)c3O)C(O)C2O)c(=O)[nH]1 (centres undefined) | 31.8 µM | > 100 µM | 68.4 µM | > 100 µM | > 100 µM | > 100 µM | 22.8 µM | 59.7 µM | 28.9 µM | 84.3 µM | > 100 µM | > 100 µM | 19.4 µM | 33.5 µM | 20.1 µM | 38.7 µM | – | – | 19.1 µM | 35.9 µM
Cc1ccc(-n2c3c(c4c(CN(C)C)c(O)ccc42)CCc2ccccc2C3=O)cc1 | 16.3 µM | 36 µM | 14.9 µM | 29.7 µM | 17.5 µM | 40 µM | 21.3 µM | 57.7 µM | > 100 µM | > 100 µM | – | – | 14.9 µM | 28.9 µM | 16.3 µM | 30.9 µM | > 100 µM | > 100 µM | 15.1 µM | 33.7 µM

Reference: PubChem BioAssay (NCI)
